Values after ≈ are worked out from the molar mass of the structure shown. Active and inactive are the calls of the source. The rule behind the calls is not given here.
What was measured:
[1] = Toxicity in BALB/c mouse xenografted with mouse EMT6 cells at 24 mg/kg, ip administered every 3 days for 14 consecutive days; assay type: organism-based; settings: in vivo, 336 h, time 14 day
[2] = Toxicity in BALB/c mouse xenografted with mouse EMT6 cells assessed as effect on body weight at 20 mg/kg, ip measured on day 1 (reference value: 18.5 +/-0.5g); assay type: organism-based; settings: in vivo, 24 h, time 1 day
[3] = system: EMT6; assay: Antitumor activity against mouse EMT6 cells xenografted in BALB/c mouse model assessed as tumor weight at 20 mg/kg,ip administered every 3 days for 14 consecutive days (reference value: 1.53 +/-0.26g); assay type: functional; settings: time 14 day
[4] = Toxicity in BALB/c mouse xenografted with mouse EMT6 cells assessed as effect on body weight at 20 mg/kg, ip measured on day 14 (reference value: 21.6 +/-0.6g); assay type: organism-based; settings: in vivo, 336 h, time 14 day
[5] = system: EMT6; assay: Antitumor activity against mouse EMT6 cells xenografted in BALB/c mouse model assessed as tumor growth inhibition at 20 mg/kg,ip administered every 3 days for 14 consecutive days relative to control; assay type: functional; set-up: scale not given: the % may be the effect or the level left; settings: time 14 day
[6] = system: Staphylococcus aureus; assay: Antibacterial activity against methicillin-resistant Staphylococcus aureus ATCC 43300 incubated for 16 to 18 hrs by CLSI based broth dilution method; assay type: functional; settings: time 16-18 hrs
[7] = system: Acinetobacter baumannii; assay: Antibacterial activity against Acinetobacter baumannii 20-2 incubated for 16 to 18 hrs by CLSI based broth dilution method; assay type: functional; settings: time 16-18 hrs
[8] = system: EMT6; assay: Antitumor activity against mouse EMT6 cells xenografted in BALB/c mouse model assessed as tumor growth inhibition at 10 mg/kg,ip administered every 3 days for 14 consecutive days relative to control; assay type: functional; set-up: scale not given: the % may be the effect or the level left; settings: time 14 day
[9] = system: Staphylococcus aureus; assay: Antibacterial activity against methicillin-sensitive Staphylococcus aureus ATCC 25923 incubated for 16 to 18 hrs by CLSI based broth dilution method; assay type: functional; settings: time 16-18 hrs
[10] = system: Staphylococcus epidermidis; assay: Antibacterial activity against Staphylococcus epidermidis ATCC 12228 incubated for 16 to 18 hrs by CLSI based broth dilution method; assay type: functional; settings: time 16-18 hrs
[11] = system: Staphylococcus aureus; assay: Antibacterial activity against methicillin-resistant Staphylococcus aureus ATCC 43300 incubated for 16 to 18 hrs in presence of human plasma by CLSI based broth dilution method; assay type: functional; settings: time 16-18 hrs
[12] = system: HepG2; assay: Cytotoxicity against human HepG2 cells measured after 72 hrs by MTT assay; assay type: functional, cell-based; settings: HepG2, 72 h
[13] = Toxicity in BALB/c mouse xenografted with mouse EMT6 cells assessed as effect on body weight at 5 mg/kg, ip measured on day 14 (reference value: 21.6 +/-0.6g); assay type: organism-based; settings: in vivo, 336 h, time 14 day
[14] = system: Escherichia coli; assay: Antibacterial activity against Escherichia coli ATCC 25922 incubated for 16 to 18 hrs in absence of human plasma by CLSI based broth dilution method; assay type: functional; settings: time 16-18 hrs
[15] = system: Staphylococcus aureus; assay: Antibacterial activity against vancomycin intermediate Staphylococcus aureus ATCC 700699 incubated for 16 to 18 hrs by CLSI based broth dilution method; assay type: functional; settings: time 16-18 hrs
[16] = Toxicity in BALB/c mouse xenografted with mouse EMT6 cells assessed as effect on body weight at 10 mg/kg, ip measured on day 1 (reference value: 18.5 +/-0.5g); assay type: organism-based; settings: in vivo, 24 h, time 1 day
[17] = system: Enterococcus faecalis; assay: Antibacterial activity against Enterococcus faecalis ATCC 29212 incubated for 16 to 18 hrs by CLSI based broth dilution method; assay type: functional; settings: time 16-18 hrs
[18] = system: Acinetobacter baumannii; assay: Antibacterial activity against Acinetobacter baumannii 20-1 incubated for 16 to 18 hrs by CLSI based broth dilution method; assay type: functional; settings: time 16-18 hrs
[19] = system: HCT-116; assay: Cytotoxicity against human HCT-116 cells measured after 72 hrs by MTT assay; assay type: functional, cell-based; settings: HCT-116, 72 h
[20] = system: Escherichia coli; assay: Antibacterial activity against Escherichia coli ATCC 25922 incubated for 16 to 18 hrs in presence of human plasma by CLSI based broth dilution method; assay type: functional; settings: time 16-18 hrs
[21] = system: Staphylococcus aureus; assay: Antibacterial activity against methicillin-resistant Staphylococcus aureus ATCC 43300 assessed as inhibition of bacterial growth at upto 8 times MIC measured upto 28 hrs by time kill curve assay; assay type: functional, organism-based
[22] = Toxicity in BALB/c mouse xenografted with mouse EMT6 cells at 5 mg/kg, ip administered every 3 days for 14 consecutive days; assay type: organism-based; settings: in vivo, 336 h, time 14 day
[23] = system: Staphylococcus aureus; assay: Antibacterial activity against methicillin-resistant Staphylococcus aureus ATCC 33591 incubated for 16 to 18 hrs by CLSI based broth dilution method; assay type: functional; settings: time 16-18 hrs
[24] = system: EMT6; assay: Antitumor activity against mouse EMT6 cells xenografted in BALB/c mouse model assessed as tumor growth inhibition at 5 mg/kg,ip administered every 3 days for 14 consecutive days relative to control; assay type: functional; set-up: scale not given: the % may be the effect or the level left; settings: time 14 day
[25] = system: Pseudomonas aeruginosa; assay: Antibacterial activity against Pseudomonas aeruginosa ATCC 27853 incubated for 16 to 18 hrs by CLSI based broth dilution method; assay type: functional; settings: time 16-18 hrs
[26] = system: Enterococcus; assay: Antibacterial activity against Vancomycin-resistant Enterococcus ATCC 51575 incubated for 16 to 18 hrs by CLSI based broth dilution method; assay type: functional; settings: time 16-18 hrs
[27] = system: Acinetobacter baumannii; assay: Antibacterial activity against Acinetobacter baumannii ATCC 19606 incubated for 16 to 18 hrs by CLSI based broth dilution method; assay type: functional; settings: time 16-18 hrs
[28] = system: Klebsiella pneumoniae; assay: Antibacterial activity against Klebsiella pneumoniae ATCC 700603 assessed as reduction in microbial growth incubated for 16 to 18 hrs by CLSI based broth dilution method; assay type: functional; settings: time 16-18 hrs
[29] = system: Staphylococcus aureus; assay: Antibacterial activity against Staphylococcus aureus ATCC 29213 incubated for 16 to 18 hrs in presence of human plasma by CLSI based broth dilution method; assay type: functional; settings: time 16-18 hrs
[30] = system: Escherichia coli; assay: Antibacterial activity against Escherichia coli ATCC BAA-2340 incubated for 16 to 18 hrs by CLSI based broth dilution method; assay type: functional; settings: time 16-18 hrs
[31] = system: EMT6; assay: Antitumor activity against mouse EMT6 cells xenografted in BALB/c mouse model assessed as tumor weight at 10 mg/kg,ip administered every 3 days for 14 consecutive days (reference value: 1.53 +/-0.26g); assay type: functional; settings: time 14 day
[32] = system: Staphylococcus aureus; assay: Antibacterial activity against methicillin-sensitive Staphylococcus aureus 15-1 incubated for 16 to 18 hrs by CLSI based broth dilution method; assay type: functional; settings: time 16-18 hrs
[33] = system: MCF7; assay: Cytotoxicity against human MCF7 cells measured after 72 hrs by MTT assay; assay type: functional, cell-based; settings: MCF7, 72 h
[34] = system: Enterococcus faecalis; assay: Antibacterial activity against Enterococcus faecalis EFA19-1 incubated for 16 to 18 hrs by CLSI based broth dilution method; assay type: functional; settings: time 16-18 hrs
[35] = system: Staphylococcus aureus; assay: Antibacterial activity against methicillin-sensitive Staphylococcus aureus ATCC 29213 incubated for 16 to 18 hrs by CLSI based broth dilution method; assay type: functional; settings: time 16-18 hrs
[36] = system: Klebsiella pneumoniae; assay: Antibacterial activity against Klebsiella pneumoniae 15-1 assessed as reduction in microbial growth incubated for 16 to 18 hrs by CLSI based broth dilution method; assay type: functional; settings: time 16-18 hrs
[37] = Toxicity in BALB/c mouse xenografted with mouse EMT6 cells assessed as effect on body weight at 10 mg/kg, ip measured on day 14 (reference value: 21.6 +/-0.6g); assay type: organism-based; settings: in vivo, 336 h, time 14 day
[38] = system: HGC-27; assay: Cytotoxicity against human HGC-27 cells measured after 72 hrs by MTT assay; assay type: functional, cell-based; settings: HGC-27, 72 h
[39] = system: Escherichia coli; assay: Antibacterial activity against Escherichia coli ATCC 25922 incubated for 16 to 18 hrs by CLSI based broth dilution method; assay type: functional; settings: time 16-18 hrs
[40] = system: Staphylococcus aureus; assay: Antibacterial activity against methicillin-resistant Staphylococcus aureus ATCC 43300 incubated for 16 to 18 hrs in absence of human plasma by CLSI based broth dilution method; assay type: functional; settings: time 16-18 hrs
[41] = target: T1, Dihydrofolate reductase (Homo sapiens) (UniProt P00374); assay: Inhibition of human DHFR at 1 uM incubated for 10 mins in presence of NADPH by colorimetry based analysis relative to control
T1 sequence (whole entry): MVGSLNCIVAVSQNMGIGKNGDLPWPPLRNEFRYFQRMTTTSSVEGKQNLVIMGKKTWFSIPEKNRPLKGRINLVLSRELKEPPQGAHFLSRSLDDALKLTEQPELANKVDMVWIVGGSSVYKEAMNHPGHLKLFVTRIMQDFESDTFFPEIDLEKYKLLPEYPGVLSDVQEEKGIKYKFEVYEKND

[42] = system: Staphylococcus aureus; assay: Antibacterial activity against vancomycin intermediate Staphylococcus aureus ATCC 700788 incubated for 16 to 18 hrs by CLSI based broth dilution method; assay type: functional; settings: time 16-18 hrs
[43] = Toxicity in BALB/c mouse xenografted with mouse EMT6 cells assessed as effect on body weight at 5 mg/kg, ip measured on day 1 (reference value: 18.5 +/-0.5g); assay type: organism-based; settings: in vivo, 24 h, time 1 day
[44] = system: EMT6; assay: Antitumor activity against mouse EMT6 cells xenografted in BALB/c mouse model assessed as tumor weight at 5 mg/kg,ip administered every 3 days for 14 consecutive days (reference value: 1.53 +/-0.26g); assay type: functional; settings: time 14 day
[45] = system: Escherichia coli; assay: Antibacterial activity against Escherichia coli ATCC 25922 assessed as inhibition of bacterial growth at upto 8 times MIC measured upto 28 hrs by time kill curve assay; assay type: functional, organism-based
[46] = system: Enterococcus faecalis; assay: Antibacterial activity against Enterococcus faecalis EFA19-2 incubated for 16 to 18 hrs by CLSI based broth dilution method; assay type: functional; settings: time 16-18 hrs
[47] = system: Staphylococcus aureus; assay: Antibacterial activity against Staphylococcus aureus ATCC 29213 incubated for 16 to 18 hrs in absence of human plasma by CLSI based broth dilution method; assay type: functional; settings: time 16-18 hrs
[48] = system: Acinetobacter baumannii; assay: Antibacterial activity against Acinetobacter baumannii ATCC 19606 assessed as reduction in microbial growth incubated for 16 to 18 hrs by CLSI based broth dilution method; assay type: functional; settings: time 16-18 hrs
[49] = system: Staphylococcus aureus; assay: Antibacterial activity against Staphylococcus aureus ATCC 29213 incubated for 16 to 18 hrs by CLSI based broth dilution method; assay type: functional; settings: time 16-18 hrs
[50] = system: Staphylococcus aureus; assay: Antibacterial activity against methicillin-sensitive Staphylococcus aureus 15-2 incubated for 16 to 18 hrs by CLSI based broth dilution method; assay type: functional; settings: time 16-18 hrs
[51] = system: EMT6; assay: Antitumor activity against mouse EMT6 cells xenografted in ip dosed BALB/c mouse model assessed as delay in tumor progression administered every 3 days for 14 consecutive days; assay type: functional, organism-based; settings: time 14.0 day
[52] = system: Escherichia coli; assay: Antibacterial activity against Escherichia coli ECO 15-1 incubated for 16 to 18 hrs by CLSI based broth dilution method; assay type: functional; settings: time 16-18 hrs

CC(=O)O[C@H]1C(=O)[C@@]2(C)[C@H]([C@H](OC(=O)c3ccccc3)[C@]3(O)C[C@H](OC(=O)[C@H](O)[C@@H](NC(=O)c4ccccc4)c4ccccc4)C(C)=C1C3(C)C)[C@]1(OC(C)=O)CO[C@@H]1C[C@@H]2O [PACLITAXEL]
Activity [1]: Non-Toxic | Activity [2]: 18.6 g | Activity [3]: 0.71 g | Activity [4]: 20.1 g | Activity [5]: 53.2%

Nc1nc(N)c2c(ccc3c2ccn3Cc2nc3ccccc3s2)n1
MIC [6]: 0.016 µg/mL (≈ 0.0462 µM) | MIC [7]: 1 µg/mL (≈ 2.89 µM) | Activity [8]: 71.1% | MIC [9]: 0.06 µg/mL (≈ 0.173 µM) | MIC [10]: ≤ 4 ng/mL | MIC [11]: 1 µg/mL | IC50 [12]: 34 nM | Activity [13]: 15.1 g | MIC [14]: 0.03 µg/mL (≈ 0.0866 µM) | MIC [15]: 0.25 µg/mL (≈ 0.722 µM) | Activity [16]: 18.6 g | MIC [17]: ≤ 4 ng/mL | MIC [18]: 16 µg/mL (≈ 46.2 µM) | IC50 [19]: 2 nM | MIC [20]: 1 µg/mL | Activity [21]: Active | Activity [22]: Non-Toxic | MIC [23]: ≤ 0.03 µg/mL | Activity [24]: 72.9% | MIC [25]: > 64 µg/mL | MIC [26]: ≤ 0.03 µg/mL | MIC [27]: 1 µg/mL (≈ 2.89 µM) | MIC [28]: 2 µg/mL | MIC [29]: 2 µg/mL | MIC [30]: > 64 µg/mL | Activity [31]: 0.44 g | MIC [32]: ≤ 0.03 µg/mL | IC50 [33]: 110 nM | MIC [34]: ≤ 0.03 µg/mL | MIC [35]: ≤ 0.03 µg/mL | MIC [36]: 2 µg/mL | Activity [37]: 14.3 g | IC50 [38]: 1 nM | MIC [39]: 0.03 µg/mL (≈ 0.0866 µM) | MIC [40]: 0.016 µg/mL (≈ 0.0462 µM) | inhibition [41]: 96% | MIC [42]: ≤ 0.03 µg/mL | Activity [43]: 18.5 g | Activity [44]: 0.41 g | Activity [45]: Active | MIC [46]: ≤ 0.03 µg/mL | MIC [47]: 0.06 µg/mL (≈ 0.173 µM) | MIC [48]: 1 µg/mL | MIC [49]: 0.06 µg/mL (≈ 0.173 µM) | MIC [50]: ≤ 0.03 µg/mL | Activity [51]: Dose-Dependent Effect | MIC [52]: > 64 µg/mL
